# Experimental data taken from patent US10906873B2, “Substituted cyclic amides as herbicides” (FMC Corporation, priority 2015, dated 2021).
# Assays:
# Assay type in all cases: in vivo
# [1] = tested on: pigweed (Amaranthus retroflexus); test: Test A postemergence, pigweed; details: 0 to 100 scale
# Method in brief: (§1)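 Visual injury ratings, 0 = no effect to 100 = complete control, made versus untreated controls after about 10 d in greenhouse. Chemicals formulated in solvent mixture containing surfactant were sprayed on loam-sand soil after seeding (preemergence) or onto plants at one- to two-leaf stage, 2-10 cm (postemergence).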
# [2] = tested on: pigweed (Amaranthus retroflexus); test: Test A preemergence, pigweed; details: 0 to 100 scale
# Method in brief: as §1
# [3] = tested on: ducksalad (Heteranthera limosa); test: Test B flooded paddy test, ducksalad; details: Flood, scale of 0 to 100 where 0 is no effect and 100 is complete control, 13 to 15 d
# Method in brief: (§2)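 Ratings use a 0-100 visual scale, where 100 is complete control, and compare treated plants with controls after 13 to 15 d of greenhouse growth. Compound went straight into paddy water kept 3 cm over the soil surface, applied to seedlings at the 2-leaf stage.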
# [4] = tested on: foxtail, giant (giant foxtail, Setaria faberii); test: Test A preemergence, foxtail, giant; details: 0 to 100 scale
# Method in brief: as §1
# [5] = tested on: barnyardgrass (Echinochloa crus-galli); test: Test A postemergence, barnyardgrass; details: 0 to 100 scale
# Method in brief: as §1
# [6] = tested on: kochia (Kochia scoparia); test: Test A postemergence, kochia; details: 0 to 100 scale
# Method in brief: as §1
# [7] = tested on: barnyardgrass (Echinochloa crus-galli); test: Test B flooded paddy test, barnyardgrass; details: Flood, scale of 0 to 100 where 0 is no effect and 100 is complete control, 13 to 15 d
# Method in brief: as §2
# [8] = tested on: sedge, umbrella (small-flower umbrella sedge, Cyperus difformis); test: Test B flooded paddy test, sedge, umbrella; details: Flood, scale of 0 to 100 where 0 is no effect and 100 is complete control, 13 to 15 d
# Method in brief: as §2
# [9] = tested on: corn (Zea mays); test: Test A postemergence, corn; details: 0 to 100 scale
# Method in brief: as §1
# [10] = tested on: galium (catchweed bedstraw, Galium aparine); test: Test A postemergence, galium; details: 0 to 100 scale
# Method in brief: as §1
# [11] = tested on: blackgrass (Alopecurus myosuroides); test: Test A postemergence, blackgrass; details: 0 to 100 scale
# Method in brief: as §1
# [12] = tested on: barnyardgrass (Echinochloa crus-galli); test: Test A preemergence, barnyardgrass; details: 0 to 100 scale
# Method in brief: as §1
# [13] = tested on: foxtail, giant (giant foxtail, Setaria faberii); test: Test A postemergence, foxtail, giant; details: 0 to 100 scale
# Method in brief: as §1
# [14] = tested on: rice (Oryza sativa); test: Test B flooded paddy test, rice; details: Flood, scale of 0 to 100 where 0 is no effect and 100 is complete control, 13 to 15 d
# Method in brief: as §2
# [15] = tested on: ryegrass, It. (Italian ryegrass, Lolium multiflorum); test: Test A preemergence, ryegrass, It.; details: 0 to 100 scale
# Method in brief: as §1
# [16] = tested on: ragweed (common ragweed, Ambrosia elatior); test: Test A postemergence, ragweed; details: 0 to 100 scale
# Method in brief: as §1
# [17] = tested on: ragweed (common ragweed, Ambrosia elatior); test: Test A preemergence, ragweed; details: 0 to 100 scale
# Method in brief: as §1
# [18] = tested on: ryegrass, It. (Italian ryegrass, Lolium multiflorum); test: Test A postemergence, ryegrass, It.; details: 0 to 100 scale
# Method in brief: as §1
# [19] = tested on: kochia (Kochia scoparia); test: Test A preemergence, kochia; details: 0 to 100 scale
# Method in brief: as §1
# [20] = tested on: wheat (Triticum aestivum); test: Test A postemergence, wheat; details: 0 to 100 scale
# Method in brief: as §1
Structure (SMILES),"Plant response rating, Pigweed ([1]; 125 g ai/ha)","Plant response rating, Pigweed ([1]; 500 g ai/ha)","Plant response rating, Pigweed ([2]; 125 g ai/ha)","Plant response rating, Pigweed ([2]; 500 g ai/ha)","Plant response rating, Foxtail, Giant ([4]; 125 g ai/ha)","Plant response rating, Foxtail, Giant ([4]; 500 g ai/ha)","Plant response rating, Barnyardgrass ([5]; 125 g ai/ha)","Plant response rating, Barnyardgrass ([5]; 500 g ai/ha)","Plant response rating, Kochia ([6]; 125 g ai/ha)","Plant response rating, Kochia ([6]; 500 g ai/ha)","Plant response rating, Corn ([9]; 125 g ai/ha)","Plant response rating, Corn ([9]; 500 g ai/ha)","Plant response rating, Galium ([10]; 125 g ai/ha)","Plant response rating, Galium ([10]; 500 g ai/ha)","Plant response rating, Blackgrass ([11]; 125 g ai/ha)","Plant response rating, Blackgrass ([11]; 500 g ai/ha)","Plant response rating, Barnyardgrass ([12]; 125 g ai/ha)","Plant response rating, Barnyardgrass ([12]; 500 g ai/ha)","Plant response rating, Foxtail, Giant ([13]; 125 g ai/ha)","Plant response rating, Foxtail, Giant ([13]; 500 g ai/ha)",other results
O=C1NCC(/C=C/c2ccccc2F)C1C(=O)Nc1cccc(F)c1F (centres unmarked) [Compound 28],0,0,0,0,50,90,50,70,0,0,0,0,0,20,0,0,50,90,20,50,"Plant response rating, Ducksalad ([3]; 250 g ai/ha): 90; Plant response rating, Barnyardgrass ([7]; 250 g ai/ha): 90; Plant response rating, Sedge, Umbrella ([8]; 250 g ai/ha): 50; Plant response rating, Rice ([14]; 250 g ai/ha): 10; Plant response rating, Ryegrass, It. ([15]; 125 g ai/ha): 0; Plant response rating, Ryegrass, It. ([15]; 500 g ai/ha): 0; Plant response rating, Ragweed ([16]; 125 g ai/ha): 0; Plant response rating, Ragweed ([16]; 500 g ai/ha): 0; Plant response rating, Ragweed ([17]; 125 g ai/ha): 0; Plant response rating, Ragweed ([17]; 500 g ai/ha): 0; Plant response rating, Ryegrass, It. ([18]; 125 g ai/ha): 0; Plant response rating, Ryegrass, It. ([18]; 500 g ai/ha): 0; Plant response rating, Kochia ([19]; 125 g ai/ha): 0; Plant response rating, Kochia ([19]; 500 g ai/ha): 0; Plant response rating, Wheat ([20]; 125 g ai/ha): 0; Plant response rating, Wheat ([20]; 500 g ai/ha): 0"
"O=C1NCC(C#Cc2cccc(Cl)c2)C1C(=O)Nc1ccccc1F (centres unmarked) [Compound 25, 4-[2-(3-chlorophenyl)ethynyl]N-(2-fluorophenyl)-2-oxo-3-pyrrolidinecarboxamide]",0,20,0,50,40,90,40,70,0,0,0,0,0,60,0,0,60,90,30,80,"Plant response rating, Ducksalad ([3]; 250 g ai/ha): 85; Plant response rating, Barnyardgrass ([7]; 250 g ai/ha): 0; Plant response rating, Sedge, Umbrella ([8]; 250 g ai/ha): 0; Plant response rating, Rice ([14]; 250 g ai/ha): 20; Plant response rating, Ryegrass, It. ([15]; 125 g ai/ha): 0; Plant response rating, Ryegrass, It. ([15]; 500 g ai/ha): 0; Plant response rating, Ragweed ([16]; 125 g ai/ha): 0; Plant response rating, Ragweed ([16]; 500 g ai/ha): 0; Plant response rating, Ragweed ([17]; 125 g ai/ha): 0; Plant response rating, Ragweed ([17]; 500 g ai/ha): 0; Plant response rating, Ryegrass, It. ([18]; 125 g ai/ha): 0; Plant response rating, Ryegrass, It. ([18]; 500 g ai/ha): 0; Plant response rating, Kochia ([19]; 125 g ai/ha): 0; Plant response rating, Kochia ([19]; 500 g ai/ha): 60; Plant response rating, Wheat ([20]; 125 g ai/ha): 0; Plant response rating, Wheat ([20]; 500 g ai/ha): 0"
O=C1NCC(Cc2cccc(C(F)(F)F)c2)C1C(=O)Nc1cccc(F)c1F (centres unmarked) [Compound 11],0,0,0,0,0,0,0,0,0,0,0,0,0,0,0,0,0,0,0,0,"Plant response rating, Ducksalad ([3]; 500 g ai/ha): 0; Plant response rating, Barnyardgrass ([7]; 500 g ai/ha): 0; Plant response rating, Sedge, Umbrella ([8]; 500 g ai/ha): 0; Plant response rating, Rice ([14]; 500 g ai/ha): 0; Plant response rating, Ryegrass, It. ([15]; 125 g ai/ha): 0; Plant response rating, Ryegrass, It. ([15]; 500 g ai/ha): 0; Plant response rating, Ragweed ([16]; 125 g ai/ha): 0; Plant response rating, Ragweed ([16]; 500 g ai/ha): 0; Plant response rating, Ragweed ([17]; 125 g ai/ha): 0; Plant response rating, Ragweed ([17]; 500 g ai/ha): 0; Plant response rating, Ryegrass, It. ([18]; 125 g ai/ha): 0; Plant response rating, Ryegrass, It. ([18]; 500 g ai/ha): 0; Plant response rating, Kochia ([19]; 125 g ai/ha): 0; Plant response rating, Kochia ([19]; 500 g ai/ha): 0; Plant response rating, Wheat ([20]; 125 g ai/ha): 0; Plant response rating, Wheat ([20]; 500 g ai/ha): 0"
O=C(Nc1cccc(C(F)(F)F)c1)C1CNC(=O)C1C(=O)Nc1cccc(F)c1F (centres unmarked) [Compound 18],0,30,0,0,50,60,20,30,0,0,0,0,0,50,20,30,20,30,20,50,"Plant response rating, Ducksalad ([3]; 250 g ai/ha): 40; Plant response rating, Barnyardgrass ([7]; 250 g ai/ha): 30; Plant response rating, Sedge, Umbrella ([8]; 250 g ai/ha): 0; Plant response rating, Rice ([14]; 250 g ai/ha): 15; Plant response rating, Ryegrass, It. ([15]; 125 g ai/ha): 0; Plant response rating, Ryegrass, It. ([15]; 500 g ai/ha): 20; Plant response rating, Ragweed ([16]; 125 g ai/ha): 0; Plant response rating, Ragweed ([16]; 500 g ai/ha): 0; Plant response rating, Ragweed ([17]; 125 g ai/ha): 0; Plant response rating, Ryegrass, It. ([18]; 125 g ai/ha): 0; Plant response rating, Ryegrass, It. ([18]; 500 g ai/ha): 0; Plant response rating, Kochia ([19]; 125 g ai/ha): 0; Plant response rating, Kochia ([19]; 500 g ai/ha): 0; Plant response rating, Wheat ([20]; 125 g ai/ha): 0; Plant response rating, Wheat ([20]; 500 g ai/ha): 0"
O=C1NCC(/C=C/c2ccccc2F)C1C(=O)Nc1ccccc1F (centres unmarked) [Compound 34],0,0,80,100,20,80,0,60,0,0,0,0,0,0,0,0,20,80,20,80,"Plant response rating, Ducksalad ([3]; 250 g ai/ha): 80; Plant response rating, Barnyardgrass ([7]; 250 g ai/ha): 0; Plant response rating, Sedge, Umbrella ([8]; 250 g ai/ha): 60; Plant response rating, Rice ([14]; 250 g ai/ha): 15; Plant response rating, Ryegrass, It. ([15]; 125 g ai/ha): 0; Plant response rating, Ryegrass, It. ([15]; 500 g ai/ha): 0; Plant response rating, Ragweed ([16]; 125 g ai/ha): 0; Plant response rating, Ragweed ([16]; 500 g ai/ha): 0; Plant response rating, Ragweed ([17]; 125 g ai/ha): 0; Plant response rating, Ragweed ([17]; 500 g ai/ha): 0; Plant response rating, Ryegrass, It. ([18]; 125 g ai/ha): 0; Plant response rating, Ryegrass, It. ([18]; 500 g ai/ha): 0; Plant response rating, Kochia ([19]; 125 g ai/ha): 0; Plant response rating, Kochia ([19]; 500 g ai/ha): 0; Plant response rating, Wheat ([20]; 125 g ai/ha): 0; Plant response rating, Wheat ([20]; 500 g ai/ha): 20"
